One molecule from patent publication US11078496B2, “System for F-box hormone receptor regulated protein expression in mammalian cells” (ICAHN SCHOOL OF MEDICINE AT MOUNT SINAI, priority 2016, dated 2021) can be followed below.

The subject of the test is aphidicolin-treated mESCs. Kind of test: Mitotic entry after auxin in aphidicolin-treated A-CHK1 mESCs (mitotic index, flow cytometry). Format: cell-based, mouse. The note with it: A-CHK1 mESCs pretreated with aphidicolin for 1 day. The procedure:
FIG. 5A is a western blot analysis depicting endogenous CHK1 (*) and AID^47-CHK1 (A-CHK1, **) in four selected clones and in parental non-infected mESCs. […] serves as a loading control. Experiment was repeated three times for clones #1 and #2, and a representative blot is presented. In FIG. 5B, A-CHK1 #2 mESCs were treated with ethanol (“Con”) or auxin (“IAA”) for 1 day. Cells were then treated with the indicated concentrations of aphidicolin (“Aph”). Equal concentrations of DMSO were applied to all conditions. The next day, cells were stained with crystal violet and plates were scanned. […] Left panel: mitotic index was calculated as the percentage of H3^pS10-positive cells with 4N DNA content, measured by flow cytometry. […] Tyr15 phosphorylation of CDK1 (“CDKlpY^15”) was detected using a phospho-specific antibody. β-Actin serves as a loading control. […]
Flow cytometry was performed on a BD LSRII machine. For GFP and mOrange fluorescence analysis, cells were trypsinized, neutralized with FBS-containing media, supplemented with […] DAPI and kept on ice. […] GFP and mOrange fluorescence intensities were detected using the fluorescein isothiocyanate (“FITC”) and DsRed channels, respectively. Background autofluorescence was measured using parental noninfected cells. […] To calculate % degradation, relative median fluorescence was subtracted from 1. […]
Background: A flow cytometer gives signals particle by particle.

On to `O=C(O)Cc1c[nH]c2ccccc12` [auxin, indole-3-acetic acid], for which the “time of synchronous mitotic entry post-auxin treatment” value was 45 to 90 min.
